Tests used:
[1] = tested on: human erytroblast leukemia HEL-92.1.7 cells; assay: Growth inhibition test (MTS) on HEL-92.1.7 cells; assay type: cell-based; settings: 72 hours, read-out: HEL92 ED50
Procedure: (§1) Ten thousand cells of human erytroblast leukemia HEL-92.1.7 were inoculated into each well of a 96-well microplate (manufactured by Corning Corp.) using RPMI 1640 medium (culture medium) containing 10% fetal calf serum (FCS). Next day, a dimethyl sulfoxide (DMSO) solution of each test compound prepared in a concentration of 10 mmol/L was further diluted with culture medium to the desired concentrations (0.1, 0.5, 1, 2.5, 5 and 10 micromol/L), and the diluted solution was added to each well. The individual wells were further cultured in 5% carbon dioxide at 37° C. for 72 hours. After completion of the culture, 10 μl MTS (3-(4,5-Dimethyl-2-thiazolyl)-5-(carboxymethoxyphenyl)-2-(4-sulfophenyl)-2H-tetrazolium, inner salt assay (CellTiter96® AQueous One Solution Cell Proliferation Assay, Promega) was added to each well, and culturing was performed in 5% carbon dioxide at 37° C. for 2 hours. Using a microplate spectrophotometer (Synergy 2 multi-mode microplate reader (BioTek)), the absorbance of each well was measured at 490 nm. The value for cells not incorporated with a test compound was designated as 100%. By comparing these values with the absorbance difference obtained at the well in which each test compound was added, the cell viability (% viability) after treatment with the test compound was calculated.

[2] = tested on: tumors derived from MV4-11 cells xenografted in nude mice; assay: In vivo anticancer activity, MV4-11 xenograft; settings: QD, PO
Procedure: The anticancer activity of compounds 20, 359 and 416 was assessed on tumors derived from MV4-11 cells xenografted in nude mice. Mice were inoculated with 5*10^6 cells and the tumor volume was measured until it reached 100 mm^3. Throughout the whole study tumor volume has been measured (FIG. 2) and tumor growth inhibition (TGI) was calculated.

[3] = tested on: human breast adenocarcinoma MCF7 cells; assay: Growth inhibition test (MTS) on MCF7 cells; assay type: cell-based; settings: Homo sapiens, MCF7, 72 hours, read-out: MCF-7 ED50
Summary of the method: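 MCF7 cells seeded in DMEM with 10% FCS, dosed next day at 0.1–10 micromol/L (diluted from 10 mmol/L DMSO stock) and cultured 72 h at 37° C, 5% CO2. MTS added for 2 h, absorbance read at 490 nm; % viability calculated relative to untreated cells as 100%.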

Ros(h) = Ros(h) (Homo sapiens (Human), UniProt P08922); assay: KinaseProfiler kinase panel; assay type: biochemical
GSK3β(h) = GSK3β(h) (Homo sapiens (Human), UniProt P49841); assay: KinaseProfiler kinase panel; assay type: biochemical
[4] = tested on: human chronic myelocytic leukemia K562 cells; assay: Growth inhibition test (MTS) on K562 cells; assay type: cell-based; settings: Homo sapiens, K562, 72 hours, read-out: K562 ED50
Procedure: as §1, with “chronic myelocytic” for “erytroblast”, “K562” for “HEL-92.1.7”, “Iscove's MDM” for “RPMI 1640”

PASK(h) = PASK(h) (Homo sapiens (Human), UniProt Q96RG2); assay: KinaseProfiler kinase panel; assay type: biochemical
Sequence of PASK(h) (Q96RG2 whole entry): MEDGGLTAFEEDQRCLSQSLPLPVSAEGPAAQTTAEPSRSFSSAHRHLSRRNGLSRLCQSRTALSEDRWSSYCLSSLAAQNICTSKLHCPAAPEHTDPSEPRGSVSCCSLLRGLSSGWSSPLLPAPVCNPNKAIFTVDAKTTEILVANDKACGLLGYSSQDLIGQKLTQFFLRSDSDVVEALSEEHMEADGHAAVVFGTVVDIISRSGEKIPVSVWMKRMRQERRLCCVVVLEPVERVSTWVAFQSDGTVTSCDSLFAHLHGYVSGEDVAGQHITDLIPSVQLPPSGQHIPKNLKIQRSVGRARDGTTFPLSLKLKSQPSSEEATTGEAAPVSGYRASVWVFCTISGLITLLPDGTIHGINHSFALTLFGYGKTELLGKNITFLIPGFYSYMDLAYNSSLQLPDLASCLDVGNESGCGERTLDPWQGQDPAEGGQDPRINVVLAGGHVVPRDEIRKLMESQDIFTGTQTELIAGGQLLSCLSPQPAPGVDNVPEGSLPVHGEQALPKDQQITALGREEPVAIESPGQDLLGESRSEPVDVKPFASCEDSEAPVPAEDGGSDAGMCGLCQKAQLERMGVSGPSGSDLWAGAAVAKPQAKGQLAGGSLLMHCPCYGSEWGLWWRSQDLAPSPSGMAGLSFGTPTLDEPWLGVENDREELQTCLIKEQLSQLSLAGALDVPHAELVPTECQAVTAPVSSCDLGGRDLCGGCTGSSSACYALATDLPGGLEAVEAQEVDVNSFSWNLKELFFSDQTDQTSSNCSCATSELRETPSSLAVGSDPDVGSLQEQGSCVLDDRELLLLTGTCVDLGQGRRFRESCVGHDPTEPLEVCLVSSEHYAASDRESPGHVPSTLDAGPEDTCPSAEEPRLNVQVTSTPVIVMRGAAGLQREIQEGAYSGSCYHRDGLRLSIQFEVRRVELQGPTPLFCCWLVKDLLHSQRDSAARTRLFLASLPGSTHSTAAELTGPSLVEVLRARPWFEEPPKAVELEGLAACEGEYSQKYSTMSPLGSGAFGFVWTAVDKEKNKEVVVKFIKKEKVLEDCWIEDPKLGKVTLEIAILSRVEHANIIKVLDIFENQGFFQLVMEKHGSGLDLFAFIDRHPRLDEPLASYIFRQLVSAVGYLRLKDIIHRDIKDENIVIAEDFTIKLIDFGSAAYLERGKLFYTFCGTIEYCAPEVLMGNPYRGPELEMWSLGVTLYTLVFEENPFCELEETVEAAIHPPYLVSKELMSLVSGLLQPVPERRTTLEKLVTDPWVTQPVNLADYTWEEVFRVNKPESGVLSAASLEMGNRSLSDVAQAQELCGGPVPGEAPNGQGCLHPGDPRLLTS

Sequence of GSK3β(h) (P49841 whole entry): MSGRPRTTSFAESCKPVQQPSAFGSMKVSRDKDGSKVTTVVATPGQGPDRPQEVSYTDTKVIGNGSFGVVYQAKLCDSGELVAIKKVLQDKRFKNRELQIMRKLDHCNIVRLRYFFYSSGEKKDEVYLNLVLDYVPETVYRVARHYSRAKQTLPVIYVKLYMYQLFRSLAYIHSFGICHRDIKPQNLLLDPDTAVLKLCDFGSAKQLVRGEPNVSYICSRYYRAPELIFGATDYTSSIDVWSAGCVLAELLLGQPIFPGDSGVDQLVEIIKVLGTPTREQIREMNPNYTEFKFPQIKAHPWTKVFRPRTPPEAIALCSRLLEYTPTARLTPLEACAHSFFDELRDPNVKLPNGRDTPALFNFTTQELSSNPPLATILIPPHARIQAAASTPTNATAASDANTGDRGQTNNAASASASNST
Sequence of Ros(h) (P08922 28-2347): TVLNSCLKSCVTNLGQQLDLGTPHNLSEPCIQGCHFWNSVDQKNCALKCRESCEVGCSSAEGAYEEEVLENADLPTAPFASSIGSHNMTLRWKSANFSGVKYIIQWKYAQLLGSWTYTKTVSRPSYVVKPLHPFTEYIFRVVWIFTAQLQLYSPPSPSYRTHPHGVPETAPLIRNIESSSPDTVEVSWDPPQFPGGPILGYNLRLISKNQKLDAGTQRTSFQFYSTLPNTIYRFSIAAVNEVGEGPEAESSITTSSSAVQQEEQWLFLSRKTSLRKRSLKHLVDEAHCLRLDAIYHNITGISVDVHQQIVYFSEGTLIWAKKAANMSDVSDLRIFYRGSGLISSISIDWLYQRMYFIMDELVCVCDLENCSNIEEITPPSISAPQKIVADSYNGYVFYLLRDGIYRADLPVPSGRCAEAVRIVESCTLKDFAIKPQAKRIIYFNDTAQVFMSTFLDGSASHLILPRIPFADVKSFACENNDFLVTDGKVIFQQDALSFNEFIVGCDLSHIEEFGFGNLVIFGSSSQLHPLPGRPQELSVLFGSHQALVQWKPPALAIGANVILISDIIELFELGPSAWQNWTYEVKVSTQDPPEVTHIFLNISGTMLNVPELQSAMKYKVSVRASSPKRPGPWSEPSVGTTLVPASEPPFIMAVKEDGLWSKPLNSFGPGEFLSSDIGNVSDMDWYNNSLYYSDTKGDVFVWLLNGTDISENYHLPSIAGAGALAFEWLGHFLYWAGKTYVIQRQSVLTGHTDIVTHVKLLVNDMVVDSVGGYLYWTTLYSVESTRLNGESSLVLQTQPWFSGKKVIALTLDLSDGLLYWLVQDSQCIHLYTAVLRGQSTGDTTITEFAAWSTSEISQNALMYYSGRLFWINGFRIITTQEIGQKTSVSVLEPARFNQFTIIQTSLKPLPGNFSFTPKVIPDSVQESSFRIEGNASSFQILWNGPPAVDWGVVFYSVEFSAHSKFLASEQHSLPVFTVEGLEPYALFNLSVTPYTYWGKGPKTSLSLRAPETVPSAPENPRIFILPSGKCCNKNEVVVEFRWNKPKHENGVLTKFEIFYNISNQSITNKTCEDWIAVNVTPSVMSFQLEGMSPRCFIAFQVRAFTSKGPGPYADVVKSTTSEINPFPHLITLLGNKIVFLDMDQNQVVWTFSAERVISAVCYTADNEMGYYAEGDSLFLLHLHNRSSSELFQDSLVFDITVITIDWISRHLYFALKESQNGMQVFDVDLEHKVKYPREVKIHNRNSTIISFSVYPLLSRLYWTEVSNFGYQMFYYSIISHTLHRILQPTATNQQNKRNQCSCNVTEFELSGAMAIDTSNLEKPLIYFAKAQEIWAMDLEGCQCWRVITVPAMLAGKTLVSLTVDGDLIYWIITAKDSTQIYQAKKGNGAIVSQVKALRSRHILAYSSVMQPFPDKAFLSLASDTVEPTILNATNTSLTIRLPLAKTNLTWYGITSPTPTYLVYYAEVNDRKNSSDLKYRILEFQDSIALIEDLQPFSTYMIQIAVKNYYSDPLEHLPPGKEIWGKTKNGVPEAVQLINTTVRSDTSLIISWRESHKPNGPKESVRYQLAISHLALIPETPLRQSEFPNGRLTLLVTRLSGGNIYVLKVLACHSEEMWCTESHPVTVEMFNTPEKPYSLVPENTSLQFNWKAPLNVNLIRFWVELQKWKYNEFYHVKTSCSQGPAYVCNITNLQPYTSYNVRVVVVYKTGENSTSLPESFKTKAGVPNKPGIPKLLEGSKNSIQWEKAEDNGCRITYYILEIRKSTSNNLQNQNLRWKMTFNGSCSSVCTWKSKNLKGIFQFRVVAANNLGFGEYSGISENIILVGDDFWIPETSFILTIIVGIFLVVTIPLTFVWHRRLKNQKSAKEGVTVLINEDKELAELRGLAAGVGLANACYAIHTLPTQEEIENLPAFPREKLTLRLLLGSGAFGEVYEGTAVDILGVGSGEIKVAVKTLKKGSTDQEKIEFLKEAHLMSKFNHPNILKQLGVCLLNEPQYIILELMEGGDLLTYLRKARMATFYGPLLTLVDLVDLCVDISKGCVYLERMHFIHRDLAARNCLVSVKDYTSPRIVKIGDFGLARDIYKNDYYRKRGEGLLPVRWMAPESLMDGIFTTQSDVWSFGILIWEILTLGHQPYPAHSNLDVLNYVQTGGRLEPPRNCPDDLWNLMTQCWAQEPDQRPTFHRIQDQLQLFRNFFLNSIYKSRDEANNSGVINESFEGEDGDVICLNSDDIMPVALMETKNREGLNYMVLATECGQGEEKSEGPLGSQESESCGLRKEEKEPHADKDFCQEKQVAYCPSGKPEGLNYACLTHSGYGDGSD

For CCn1c(N2CCNCC2)nc2c(Br)c(Br)c(Br)c(Br)c21 [Compound 416, 4,5,6,7-tetrabromo-1-ethyl-2-(piperazin-1-yl)-1H-benzo[d]imidazole], the IC50 [1] was 2.72 µM, the “TGI (%)” value ([2]; 150 mg/kg, 21 days, MV4-11 xenograft in nude mice) was −102.8% and the “tumor growth inhibition (in words)” value ([2]; after 21 days of treatment) was “most pronounced tumor growth inhibition”. For the same molecule, the IC50 [3] was 1.26 µM, the remaining activity at 1 µM (Ros(h)) was 104% and the remaining activity at 1 µM (GSK3β(h)) was 66%. The IC50 [4] was 3.65 µM and the remaining activity at 1 µM (PASK(h)) was 28%.

From patent publication US8604217B2, “Compound, a process for its preparation, a pharmaceutical composition, use of a compound, a method for modulating or regulating serine/threonine kinases and a serine/threonine kinases modulating agent” (Selvita S.A., priority 2009, dated 2013)
